The NIST ThermoML archive (doi:10.1016/j.jct.2011.12.022)
Where “and” joins values, the source holds several entries; their conditions need not be identical. Identical values can stand only once.

Assay: mn = molality of the nth substance listed, in mol/kg
Conditions: 101 kPa, Liquid, Pycnometric method

CN(C)C(=N)NC(=N)N.Cl [N,N-dimethylimidodicarbonimidic diamide hydrochloride] + O
Conditions | mass density
288.15 K, m1 = 0.0309 | 1000.34 kg/m3
288.15 K, m1 = 0.0416 | 1000.77 kg/m3
288.15 K, m1 = 0.0506 | 1001.17 kg/m3
288.15 K, m1 = 0.0608 | 1001.55 kg/m3
288.15 K, m1 = 0.0712 | 1001.9 kg/m3
288.15 K, m1 = 0.0815 | 1002.31 kg/m3
288.15 K, m1 = 0.0922 | 1002.71 kg/m3
288.15 K, m1 = 0.1028 | 1003.21 kg/m3
288.15 K, m1 = 0.1138 | 1003.39 kg/m3
288.15 K, m1 = 0.1207 | 1003.71 kg/m3
288.15 K, m1 = 0.1527 | 1004.89 kg/m3
298.15 K, m1 = 0.029 | 998.2 kg/m3
298.15 K, m1 = 0.0415 | 998.7 kg/m3
298.15 K, m1 = 0.0508 | 999.07 kg/m3
298.15 K, m1 = 0.0592 | 999.42 kg/m3
298.15 K, m1 = 0.0725 | 999.91 kg/m3
298.15 K, m1 = 0.0769 | 1000.1 kg/m3
298.15 K, m1 = 0.0904 | 1000.51 kg/m3
298.15 K, m1 = 0.1072 | 1001.13 kg/m3
298.15 K, m1 = 0.1191 | 1001.63 kg/m3 and 1001.57 kg/m3
298.15 K, m1 = 0.1303 | 1002 kg/m3
308.15 K, m1 = 0.0306 | 995.14 kg/m3
308.15 K, m1 = 0.0404 | 995.53 kg/m3
308.15 K, m1 = 0.0514 | 995.89 kg/m3
308.15 K, m1 = 0.058 | 996.2 kg/m3
308.15 K, m1 = 0.0704 | 996.6 kg/m3
308.15 K, m1 = 0.0811 | 996.95 kg/m3
308.15 K, m1 = 0.0915 | 997.53 kg/m3
308.15 K, m1 = 0.1014 | 997.74 kg/m3
308.15 K, m1 = 0.1218 | 998.62 kg/m3
308.15 K, m1 = 0.152 | 999.56 kg/m3

CNC(=C[N+](=O)[O-])NCCSCc1ccc(CN(C)C)o1.Cl [ranitidine hydrochloride] + O
Conditions | mass density [kg/m3]
288.15 K, m1 = 0.0202 | 1000.92
288.15 K, m1 = 0.0306 | 1001.78
288.15 K, m1 = 0.0407 | 1002.69
288.15 K, m1 = 0.0488 | 1003.32
288.15 K, m1 = 0.0602 | 1004.33
288.15 K, m1 = 0.0702 | 1005.27
288.15 K, m1 = 0.0813 | 1006.23
288.15 K, m1 = 0.092 | 1007.13
288.15 K, m1 = 0.1019 | 1007.93
288.15 K, m1 = 0.1149 | 1009.12
288.15 K, m1 = 0.1521 | 1012.15
298.15 K, m1 = 0.0103 | 997.99
298.15 K, m1 = 0.0198 | 998.81
298.15 K, m1 = 0.0295 | 999.58
298.15 K, m1 = 0.0501 | 1001.38
298.15 K, m1 = 0.0603 | 1002.17
298.15 K, m1 = 0.0697 | 1002.94
298.15 K, m1 = 0.0789 | 1003.7
298.15 K, m1 = 0.0907 | 1004.69
298.15 K, m1 = 0.0994 | 1005.38
298.15 K, m1 = 0.1171 | 1006.83
298.15 K, m1 = 0.1475 | 1009.32
308.15 K, m1 = 0.0109 | 994.91
308.15 K, m1 = 0.0191 | 995.59
308.15 K, m1 = 0.0313 | 996.62
308.15 K, m1 = 0.0428 | 997.58
308.15 K, m1 = 0.0507 | 998.2
308.15 K, m1 = 0.059 | 998.85
308.15 K, m1 = 0.0695 | 999.78
308.15 K, m1 = 0.0876 | 1001.15
308.15 K, m1 = 0.0986 | 1002.15
308.15 K, m1 = 0.119 | 1003.69
308.15 K, m1 = 0.1483 | 1006.01

COc1cccc([C@@]2(O)CCCC[C@@H]2CN(C)C)c1.Cl [tramadol hydrochloride] + O
Conditions | mass density [kg/m3]
288.15 K, m1 = 0.0138 | 999.75
288.15 K, m1 = 0.026 | 1000.36
288.15 K, m1 = 0.0298 | 1000.53
288.15 K, m1 = 0.04 | 1001.04
288.15 K, m1 = 0.0536 | 1001.72
288.15 K, m1 = 0.0604 | 1002.03
288.15 K, m1 = 0.0702 | 1002.51
288.15 K, m1 = 0.0805 | 1002.96
288.15 K, m1 = 0.0903 | 1003.44
288.15 K, m1 = 0.099 | 1003.81
288.15 K, m1 = 0.1207 | 1004.82
288.15 K, m1 = 0.1511 | 1006.21
298.15 K, m1 = 0.0114 | 997.56
298.15 K, m1 = 0.0211 | 998.02
298.15 K, m1 = 0.0296 | 998.42
298.15 K, m1 = 0.0403 | 998.93
298.15 K, m1 = 0.0501 | 999.29
298.15 K, m1 = 0.0607 | 999.82
298.15 K, m1 = 0.0804 | 1000.74
298.15 K, m1 = 0.0923 | 1001.23
298.15 K, m1 = 0.1016 | 1001.66
298.15 K, m1 = 0.1183 | 1002.31
298.15 K, m1 = 0.149 | 1003.78
308.15 K, m1 = 0.0117 | 994.5
308.15 K, m1 = 0.0195 | 994.81
308.15 K, m1 = 0.0299 | 995.32
308.15 K, m1 = 0.0399 | 995.75
308.15 K, m1 = 0.0493 | 996.19
308.15 K, m1 = 0.06 | 996.6
308.15 K, m1 = 0.0717 | 997.13
308.15 K, m1 = 0.082 | 997.64
308.15 K, m1 = 0.0912 | 997.99
308.15 K, m1 = 0.1 | 998.39
308.15 K, m1 = 0.1181 | 999.15
308.15 K, m1 = 0.1501 | 1000.52
